Assay results from patent US10988465B2, “CXCR4 inhibitors and uses thereof” (X4 Pharmaceuticals, Inc., priority 2016, dated 2021).
“And” between values parts separate entries of the source, which are not always exact repeats. Identical values can stand only once. Like-named read-outs stand apart in the source and are kept apart here.

How the values were obtained:
[1] = 7-day toxicology study in mice (clinical observations, body weight, food consumption, necropsy, hematology); assay type: in vivo, male C57BL/6 mice; details: for WBC (10^9/L), Mean: group mean; for WBC (10^9/L), Mean / WBC (10^9/L): day 8, 24 hours after last dose; for WBC (10^9/L): individual animal
Protocol: Example 41: 7-Day Toxicology Study in Mice
Blood samples were taken on day 8, 24 hours after last dose.

[2] = 7-day mouse toxicology study: toxicokinetics (plasma, brain, CSF), 30 mg/kg/day PO; assay type: in vivo, male C57BL/6 mice; details: for Cmax / Tmax / AUC(0-t) / AUC(0-inf) / half-life: male, C57BL/6, mouse, po
Protocol: The PO dosing solutions were prepared in 50 mM citrate buffer (pH 4.0) at 3 mg/mL. The blood collection was performed as follows: the animal was anesthetized under isoflurane. Approximately 500 μL blood/time point was collected into K2EDTA tube via cardiac puncture for terminal bleeding. ˜200 μL blood samples were put on ice and centrifuged to obtain plasma sample (2000 g, 5 min under 4° C.) within 15 minutes of collection. ˜300 blood samples were used for hematology assay. The brain collection was performed as follow: a mid-line incision was made in the animal's scalp and skin retracted. The skull overlying the brain was removed. The whole brain was collected, rinsed with cold saline, dried on filtrate paper, weighted, and snap frozen by placing into dry ice. The brain sample was homogenized for 2 min with 3 volumes of PBS (pH 7.4) by Mini-bead-beater before sample extraction.
An aliquot of 10 μL sample was added to 200 μL MeCN containing 10 ng/mL IS (Glipizide). The mixture was vortexed for 10 min and centrifuged at 6,000 rpm for 10 min. An aliquot of 1 μL constitution was injected for LC-MS/MS analysis.
An aliquot of 3 μL sample was added to 70 μL MeCN containing 10 ng/mL IS (Glipizide). The mixture was vortexed for 2 min and centrifuged at 14,000 rpm for 5 min. An aliquot of 1 μL constitution was injected for LC-MS/MS analysis.
The sample was homogenized with 3 volumes (v/w) of PBS. An aliquot of 10 μL sample was added to 200 μL MeCN containing 10 ng/mL IS (Glipizide). The mixture was vortexed for 10 min and centrifuged at 6,000 rpm for 10 min. An aliquot of 1 μL constitution was injected for LC-MS/MS analysis.
The sample analysis was performed on LCMSMS-28 (Triple Quad 6500+) under the following conditions: positive ion, ESI, MRM detection using glipizide as internal standard. HPLC conditions: mobile phase A: H2O/0.025% FA with 1 mM NH4OAc, mobile phase B: MeOH/0.025% FA with 1 mM NH4OAc on Waters X-Bridge BEH C18 (2.1×50 mm, 2.5 μm) column at 60° C.

[3] = Mouse brain uptake assay (MBUA), 3 mg/kg IV, 0-24 h, 4 time points; assay type: in vivo, male CD1 mice
Protocol: Example 38: Pharmacokinetics and Brain Penetration Experiment to Determine Brain and Plasma Concentrations of Compounds after IV Administration to Male CD1 Mice
The study design (9 animals) consisted of administrating the drug (IV: 3 mg/kg (5 mL/kg) via tail vein injection) and collecting samples at terminal bleeding for plasma and brain at 0.083, 0.5 and 1 h. The IV dosing solution was prepared in 50 mM citrate buffer (pH 4.0) at 0.6 mg/mL. The blood collection was performed as follows: the animal was restrained manually and approximately 150 μL blood/time point was collected into a dipotassium EDTA tube via retro orbital puncture under anesthesia with isoflurane. The blood sample was put on ice and centrifuged to obtain a plasma sample (2000 g, 5 min under 4° C.) within 15 minutes. The brain collection was performed as follows: a mid-line incision was made in the animal's scalp and the skin was retracted. Using small bone cutters and rongeurs, the skull overlying the brain was removed. The brain was removed using a spatula and the brain rinsed with cold saline. The brain was placed in screw-top tubes, and the tubes were stored at −70° C. until analysis.
An aliquot of 30 μL sample was added to 150 μL MeCN containing 50 ng/mL IS (Dexamethasone). The mixture was vortexed for 5 min and centrifuged at 14,000 rpm for 5 min. An aliquot of 5 μL supernatant was injected for LC-MS/MS analysis.
An aliquot of 30 μL brain homogenate (brain:PBS=1:3, w/v) sample was added to 150 μL IS in MeCN (Dexamethasone, 50 ng/mL). The mixture was vortexed for 5 min and centrifuged at 14,000 rpm for 5 min. An aliquot of 5 μL supernatant was injected for LC-MS/MS analysis.
The sample analysis was performed on LCMS/MS-003 (API4000, triple quadruple) under the following conditions: positive ion, ESI, MRM detection using dexamethasone as internal standard. HPLC conditions: mobile phase A: H2O (0.025% formic acid (FA) with 1 mM NH4OAc); mobile phase B: MeOH (0.025% FA with 1 mM NH4OAc) on Waters X-Bridge C18 (2.1×50 mm, 2.5 μm) column at 60° C.
A similar experiment was performed with 4 time points taken from 0-24 h.

[4] = CSF, 30 mg/kg, Day 1, CSF, 30 mg/kg PO
[5] = CSF, 30 mg/kg, Day 7, CSF, 30 mg/kg PO
[6] = brain, 30 mg/kg, Day 1, Brain, 30 mg/kg PO
[7] = brain, 30 mg/kg, Day 7, Brain, 30 mg/kg PO
[8] = plasma, 30 mg/kg, Day 1, Plasma, 30 mg/kg PO
[9] = plasma, 30 mg/kg, Day 7, Plasma, 30 mg/kg PO

## Cc1cccnc1[C@@H]1CCC[C@H](c2nc3cccc(N4CCN(C)CC4)c3[nH]2)N1C (racemic) [I-3, 2-((2R,6S)-1-methyl-6-(3-methylpyridin-2-yl)piperidin-2-yl)-7-(4-methylpiperazin-1-yl)-1H-benzo[d]imidazole]
[1]; Group 2, PO-10 mg/kg
  WBC (10^9/L), Mean: 4.92 10^9/L
[1]; Group 2, PO-10 mg/kg, 10 mg/kg
  WBC (10^9/L): 3.67 10^9/L and 6.66 10^9/L and 4.44 10^9/L
[1]; Group 3, PO-30 mg/kg
  WBC (10^9/L), Mean: 8.58 10^9/L
[1]; Group 3, PO-30 mg/kg, 30 mg/kg
  WBC (10^9/L): 11.6 10^9/L and 6.51 10^9/L and 7.69 10^9/L
[1]; Group 4, PO-100 mg/kg
  WBC (10^9/L), Mean: 18.7 10^9/L
[1]; Group 4, PO-100 mg/kg, 100 mg/kg
  WBC (10^9/L): 20.4 10^9/L
[1]; dose of 30 mg/kg P.O., 7 days
  necropsy finding: One mouse had an enlarged kidney
[1]; dose of 100 mg/kg P.O., 7 days
  white blood cells: sustained increase
[1]; male C57BL/6 mice, 7 days repeat dosing up to 100 mg/kg/day by oral gavage
  overt toxicity (clinical observations, body weight, food consumption): no overt signs of toxicity
[1]; male C57BL/6 mice, 7 days, up to 100 mg/kg/day by oral gavage
  body weight: remained stable
[2]; Day 1, 30 mg/kg PO
  AUCCSF/AUCbrain: 3.55%
[2]; Day 7, 30 mg/kg PO
  AUCCSF/AUCbrain: 0.325%
[2]; [4]
  Cmax: 11.3 ng/mL
  Tmax: 8 h
[2]; CSF, 30 mg/kg, Day 1, CSF, 30 mg/kg PO, read-out: AUClast
  AUC(0-t): 151 ng·h/mL
[2]; [5]
  Cmax: 6.42 ng/mL
  Tmax: 4 h
[2]; CSF, 30 mg/kg, Day 7, CSF, 30 mg/kg PO, read-out: AUClast
  AUC(0-t): 35.5 ng·h/mL
[2]; [6]
  AUC(0-inf): 8880 ng·h/mL
  Cmax: 219 ng/mL
  Tmax: 4 h
[2]; brain, 30 mg/kg, Day 1, Brain, 30 mg/kg PO, read-out: AUClast
  AUC(0-t): 4260 ng·h/mL
[2]; brain, 30 mg/kg, Day 1, Brain, 30 mg/kg PO, read-out: Terminal t1/2 (converted)
  half-life: 25 h
[2]; [7]
  AUC(0-inf): 29500 ng·h/mL
  Cmax: 615 ng/mL
  Tmax: 1 h
[2]; brain, 30 mg/kg, Day 7, Brain, 30 mg/kg PO, read-out: AUClast
  AUC(0-t): 10900 ng·h/mL
[2]; brain, 30 mg/kg, Day 7, Brain, 30 mg/kg PO, read-out: Terminal t1/2 (converted)
  half-life: 34.4 h
[2]; brain, 30 mg/kg, brain, D 1-30 mg/kg, PO, read-out: AUClast (b)
  AUC(0-t): 4260 ng·h/mL
[2]; brain, 30 mg/kg/day, brain, D 7-30 mg/kg, PO, read-out: AUClast (b)
  AUC(0-t): 10900 ng·h/mL
[2]; plasma, 30 mg/kg, 7 days Mouse TOX, D 1-30 mg/kg, PO, read-out: t½ (converted)
  half-life: 2.62 h
[2]; [8]
  AUC(0-inf): 2370 ng·h/mL
  Cmax: 968 ng/mL
  Tmax: 0.5 h
[2]; plasma, 30 mg/kg, Day 1, Plasma, 30 mg/kg PO, read-out: AUClast
  AUC(0-t): 2370 ng·h/mL
[2]; plasma, 30 mg/kg, Day 1, Plasma, 30 mg/kg PO, read-out: Terminal t1/2 (converted)
  half-life: 2.62 h
[2]; [9]
  AUC(0-inf): 3570 ng·h/mL
  Cmax: 1210 ng/mL
  Tmax: 0.5 h
[2]; plasma, 30 mg/kg, Day 7, Plasma, 30 mg/kg PO, read-out: AUClast
  AUC(0-t): 3560 ng·h/mL
[2]; plasma, 30 mg/kg, Day 7, Plasma, 30 mg/kg PO, read-out: Terminal t1/2 (converted)
  half-life: 3.13 h
[2]; plasma, 30 mg/kg, plasma, D 1-30 mg/kg, PO, read-out: AUClast (p)
  AUC(0-t): 2370 ng·h/mL
[2]; plasma, 30 mg/kg/day, 7 days Mouse TOX, D 7-30 mg/kg, PO, read-out: t½ (converted)
  half-life: 3.13 h
[2]; plasma, 30 mg/kg/day, plasma, D 7-30 mg/kg, PO, read-out: AUClast (p)
  AUC(0-t): 3560 ng·h/mL

## CN1CCN(c2cccc3nc([C@H]4CCC[C@@H](c5ncccc5Cl)N4)[nH]c23)CC1 (racemic) [I-122]
[3]; male, CD1, mouse, brain/plasma, iv, 3 mg/kg
  Kp: 4.17
[3]; male, CD1, plasma, mouse, 3 mg/kg IV, 0-24 h, 4 time points
  clearance: 26.2 mL/min/kg
[3]; male, CD1, plasma, mouse, 3 mg/kg IV, 0-24 h, 4 time points, read-out: t½ (converted)
  half-life: 3.5 h
[3]; male, CD1, brain, mouse, 3 mg/kg IV, 0-24 h, read-out: AUClast (b)
  AUC(0-t): 7930 ng·h/mL
[3]; male, CD1, plasma, mouse, 3 mg/kg IV, 0-24 h, read-out: AUClast (P)
  AUC(0-t): 1900 ng·h/mL
[3]; male, CD1, unbound brain/unbound plasma, mouse, 3 mg/kg IV, 0-24 h
  Kp uu: 1.15
[3]; mouse, fraction unbound to brain proteins, read-out: Fu (b) %
  fraction unbound: 0.035
[3]; mouse, fraction unbound to plasma proteins, read-out: Fu (p) %
  fraction unbound: 0.127
